Test results reported in PubChem BioAssay (NCI).
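48-hour exposure; five concentrations; linearly interpolated endpoints. Definition used: TGI = concentration required for complete inhibition of growth.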

Key:
Assay in all cases: NCI anticancer screen, dose series, 48 h
HS 578T breast = system: HS 578T breast
CCRF-CEM leukemia = system: CCRF-CEM leukemia
SK-OV-3 ovarian = system: SK-OV-3 ovarian
CAKI-1 renal = system: CAKI-1 renal
NCI-H23 lung = system: NCI-H23 lung
SF-295 CNS = system: SF-295 CNS
UACC-257 melanoma = system: UACC-257 melanoma
ACHN renal = system: ACHN renal
RXF 393 renal = system: RXF 393 renal
UO-31 renal = system: UO-31 renal
SNB-19 CNS = system: SNB-19 CNS
SR leukemia = system: SR leukemia
SW-620 colon = system: SW-620 colon
DU-145 prostate = system: DU-145 prostate
HOP-92 NSCLC = system: HOP-92 NSCLC
LOX IMVI melanoma = system: LOX IMVI melanoma
UACC-62 melanoma = system: UACC-62 melanoma
MDA-MB-435 = system: MDA-MB-435
MALME-3M melanoma = system: MALME-3M melanoma
SK-MEL-2 melanoma = system: SK-MEL-2 melanoma

Measured: TGI

CC(C)OP(=O)(OC(C)C)C(C(C)C)N(C)C(N)=NC#N (stereo not given)
> 100 µM: all assays above
